The record followed here is patent US9056855B2, “Metalloenzyme inhibitor compounds” (Viamet Pharmaceuticals, Inc., priority 2010, dated 2015).

For orientation: IC50 means the concentration that inhibits the measured activity by half.

One assay has as its target T1, CYP17 (Rattus norvegicus, UniProt P11715).
T1 construct: from tissue; host or cells: rat testis (pooled microsomes)
T1 sequence (P11715 1-507): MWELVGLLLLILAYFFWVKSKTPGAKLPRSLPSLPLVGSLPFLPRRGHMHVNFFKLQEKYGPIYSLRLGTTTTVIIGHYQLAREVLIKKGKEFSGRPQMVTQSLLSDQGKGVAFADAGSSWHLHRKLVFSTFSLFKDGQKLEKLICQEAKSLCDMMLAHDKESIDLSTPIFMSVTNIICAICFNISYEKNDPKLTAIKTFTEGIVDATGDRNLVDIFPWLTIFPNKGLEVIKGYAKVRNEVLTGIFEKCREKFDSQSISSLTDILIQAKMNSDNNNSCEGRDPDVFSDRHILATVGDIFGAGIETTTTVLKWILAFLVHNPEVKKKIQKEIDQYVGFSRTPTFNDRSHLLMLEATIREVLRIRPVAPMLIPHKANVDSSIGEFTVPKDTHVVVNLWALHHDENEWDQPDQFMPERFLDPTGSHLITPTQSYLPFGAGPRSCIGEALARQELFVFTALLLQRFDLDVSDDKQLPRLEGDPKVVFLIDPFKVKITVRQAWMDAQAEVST
Briefly: Inhibition of CYP17 (rat testicular microsomes). It is filed as biochemical. To be noted: pooled rat testicular microsomes. The protocol:
CYP17 activity was assayed according to the following procedure. […] The individual test compound and isozyme inhibitor solutions were then diluted 20-fold with deionized water (50:950 v/v) to concentrations of 135, 27, 4.5, 0.9, 0.15, 0.03 and 0.005 μM. […] For active controls, blank test compound diluent was added in place of test compound solution.

In the next assay the target is CYP2C9 (Homo sapiens, UniProt P11712). Briefly: Inhibition of liver cytochrome P450 enzymes, CYP2C9 (human liver microsomes). The procedure:
(§1) A. Inhibition of Liver Cytochrome P450 Enzymes
(§2) Solutions of each test compound were separately prepared at concentrations of 20000, 6000, 2000, 600, 200, and 60 μM by serial dilution with DMSO:MeCN (50:50 v/v). The individual test compound solutions were then diluted 20-fold with DMSO:MeCN:deionized water (5:5:180 v/v/v) to concentrations of 1000, 300, 100, 30, 10, and 3 μM. […] The mixed inhibitor solutions were then diluted 20-fold with DMSO:MeCN:deionized water (5:5:180 v/v/v) to concentrations of 300, 100, 30, 10, 3, 1, 0.3, and 0.1 μM. The percent of organic solvent attributable to the test compound or inhibitor mixture in the final reaction mixture was 2% v/v.
(§3) Pooled human liver microsome suspension (20 mg/mL) was diluted with phosphate buffer to obtain a 5 mg/mL suspension. A solution of NADPH was prepared in phosphate buffer at a concentration of 5 mM. Separate stock solutions of each substrate were prepared in DMSO:MeCN (50:50 v/v), mixed, and diluted in phosphate buffer to obtain a single solution containing each substrate at five times its experimentally determined Km concentration. The percent of organic solvent attributable to substrate mixture in the final reaction mixture was 1% v/v.
(§4) Substrate solution and microsome suspension were combined in a 1:1 volume ratio, mixed, and distributed to reaction wells of a PCR plate. Individual test compound or combined inhibitor solutions at each concentration were added to the wells and mixed by repetitive aspirate-dispense cycles. […] Reaction mixtures were allowed to equilibrate at 37° C. for approximately two minutes before adding NADPH solution to initiate reaction, followed by pipette mixing of reaction mixture. Ten minutes after addition of NADPH, the reaction mixtures were quenched with cold acetonitrile. […] A portion of the supernatant was analyzed by gradient reverse-phase HPLC with detection by electrospray ionization triple quadrupole mass spectrometry in the positive ion mode.
(§5) Data was fitted to sigmoid dose-response curves and the inhibitory potency of each test compound was determined as its IC50 value.

A further assay concerns the target CYP3A4 (Homo sapiens, UniProt P08684). Briefly: Inhibition of liver cytochrome P450 enzymes, CYP3A4 (human liver microsomes). The protocol: as §1, §2, §3, §4, §5
On the technique in general: Liver microsomes are vesicles of endoplasmic reticulum, rich in cytochrome P450 enzymes.

The next assay has as its target CYP2C19 (Homo sapiens, UniProt P33261). Briefly: Inhibition of liver cytochrome P450 enzymes, CYP2C19 (human liver microsomes). The protocol: as §1, §2, §3, §4, §5

Chain of CYP3A4 (P08684 whole entry): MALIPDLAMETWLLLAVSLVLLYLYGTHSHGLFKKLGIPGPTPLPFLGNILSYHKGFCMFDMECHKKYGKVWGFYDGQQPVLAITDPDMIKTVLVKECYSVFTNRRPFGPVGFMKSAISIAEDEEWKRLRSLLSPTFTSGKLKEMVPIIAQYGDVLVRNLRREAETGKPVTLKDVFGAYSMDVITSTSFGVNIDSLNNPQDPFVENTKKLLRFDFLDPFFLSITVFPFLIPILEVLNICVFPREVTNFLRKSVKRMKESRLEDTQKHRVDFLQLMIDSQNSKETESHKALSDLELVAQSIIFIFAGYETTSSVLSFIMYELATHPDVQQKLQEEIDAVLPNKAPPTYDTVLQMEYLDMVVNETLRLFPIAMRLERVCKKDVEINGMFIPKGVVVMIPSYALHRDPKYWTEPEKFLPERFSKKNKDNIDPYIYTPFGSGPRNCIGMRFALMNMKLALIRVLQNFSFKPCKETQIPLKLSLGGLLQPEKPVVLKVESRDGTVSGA
Chain of CYP2C19 (P33261 whole entry): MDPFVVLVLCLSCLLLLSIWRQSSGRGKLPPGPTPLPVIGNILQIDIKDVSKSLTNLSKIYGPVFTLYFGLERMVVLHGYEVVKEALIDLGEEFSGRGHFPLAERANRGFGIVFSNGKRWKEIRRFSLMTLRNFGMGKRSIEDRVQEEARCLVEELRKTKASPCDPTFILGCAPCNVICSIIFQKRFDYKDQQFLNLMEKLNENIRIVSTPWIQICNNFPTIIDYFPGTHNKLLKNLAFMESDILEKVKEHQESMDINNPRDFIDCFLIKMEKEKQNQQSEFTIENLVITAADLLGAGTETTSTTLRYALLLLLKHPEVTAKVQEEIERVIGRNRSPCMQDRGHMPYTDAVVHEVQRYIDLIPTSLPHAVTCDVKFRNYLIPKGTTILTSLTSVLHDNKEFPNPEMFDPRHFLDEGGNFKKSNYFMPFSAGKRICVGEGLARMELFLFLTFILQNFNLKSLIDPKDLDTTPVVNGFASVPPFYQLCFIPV
Chain of CYP2C9 (P11712 whole entry): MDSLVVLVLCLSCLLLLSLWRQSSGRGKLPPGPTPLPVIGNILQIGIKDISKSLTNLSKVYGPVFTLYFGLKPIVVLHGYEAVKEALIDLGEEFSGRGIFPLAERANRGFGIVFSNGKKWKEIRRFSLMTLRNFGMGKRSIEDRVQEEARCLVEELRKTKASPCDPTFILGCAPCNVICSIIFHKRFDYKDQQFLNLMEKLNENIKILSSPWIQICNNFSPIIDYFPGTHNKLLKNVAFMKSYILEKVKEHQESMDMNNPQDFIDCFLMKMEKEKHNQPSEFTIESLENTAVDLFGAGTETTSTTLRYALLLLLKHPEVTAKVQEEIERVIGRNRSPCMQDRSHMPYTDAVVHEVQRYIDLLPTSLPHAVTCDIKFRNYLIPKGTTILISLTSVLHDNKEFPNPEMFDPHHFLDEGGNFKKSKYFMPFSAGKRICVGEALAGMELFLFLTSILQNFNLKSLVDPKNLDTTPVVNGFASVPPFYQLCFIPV

On to `CSc1ccc2nc(C(O)(c3ccncn3)C(C)C)ccc2c1` (centres unmarked) [Example 2, 2-Methyl-1-(6-(methylthio)quinolin-2-yl)-1-(pyrimidin-4-yl)propan-1-ol], for which the IC50 on CYP17 turned out to be 0.12 µM; on CYP2C9, 3.3 µM; on CYP3A4, 19 µM; against CYP2C19, 5.1 µM.

Take `CC(C)C(O)(c1ccncn1)c1ccc2c(C(F)(F)F)c(-c3cccs3)ccc2n1` (centres unmarked) [Example 4, 2-methyl-1-(pyrimidin-4-yl)-1-(6-(thiophen-2-yl)-5-(trifluoromethyl)quinolin-2-yl)propan-1-ol]: the IC50 on CYP17 is 5.76 µM.

On to `CC(C)C(O)(c1ccncn1)c1ccc2cc(OC(F)F)ccc2n1` (centres unmarked) [Example 3, 1-(6-(Difluoromethoxy)quinolin-2-yl)-2-methyl-1-(pyrimidin-4-yl)propan-1-ol], for which the IC50 on CYP17 turned out to be 0.08 µM; at CYP2C9 it was 3.5 µM; at CYP3A4, 30 µM; against CYP2C19, 8.7 µM.

`CC(C)C(O)(c1ccncn1)c1ccc2c(C(F)(F)F)c(Cl)ccc2n1` (centres unmarked) [Example 5, 1-(6-chloro-5-(trifluoromethyl)quinolin-2-yl)-2-methyl-1-(pyrimidin-4-yl)propan-1-ol] returned an IC50 at CYP17 of 1.75 µM.

Take `CC(C)C(O)(c1ccncn1)c1ccc2c(C(F)(F)F)c(OC(F)F)ccc2n1` (centres unmarked) [Example 7, 1-(6-(difluoromethoxy)-5-(trifluoromethyl)quinolin-2-yl)-2-methyl-1-(pyrimidin-4-yl)propan-1-ol]: the IC50 at CYP17 was determined as 0.6 µM.

Consider `COc1cc2ccc(C(O)(c3ccncn3)C(C)C)cc2cc1OC` (centres unmarked) [Example 1, 1-(6,7-dimethoxynaphthalen-2-yl)-2-methyl-1-(pyrimidin-4-yl)propan-1-ol], for which the half-maximal inhibitory concentration (IC50) was 0.44 µM against CYP17, 7.8 µM against CYP2C9, 18 µM against CYP3A4 and 8.5 µM against CYP2C19.

For the molecule `CC(C)C(O)(c1ccncn1)c1ccc2c(-c3cccs3)c(OC(F)F)ccc2n1` (centres unmarked) [Example 8, 1-(6-(difluoromethoxy)-5-(thiophen-2-yl)quinolin-2-yl)-2-methyl-1-(pyrimidin-4-yl)propan-1-ol], 1 µM corresponded to half-maximal inhibition against CYP17 (IC50). This counts as single-digit micromolar.

Molecule `CC(C)C(O)(c1ccncn1)c1ccc2cc(OC(F)(F)F)ccc2n1` (centres unmarked) [Example 6, 2-methyl-1-(pyrimidin-4-yl)-1-(6-(trifluoromethoxy)quinolin-2-yl)propan-1-ol] displayed an IC50 at CYP17 of 0.98 µM.
